ChEMBL document CHEMBL1687905, “Blockade of IL-6 secretion pathway by the sesquiterpenoid atractylenolide III” (J Nat Prod, 2011)
Activity calls are given as the source filed them. The calls are words filed in the database; no cut-off is given here.

Tests used:
[1] = test system: HMC1; test: Immunomodulatory activity in human HMC1 cells assessed as inhibition of phorbol 12-myristate 13-acetate/A23187-stimulated JNK phosphorylation at 1 to 100 uM treated 1 hr prior to 30 mic phorbol 12-myristate 13-acetate/A23187 challenge; assay type: functional, cell-based
[2] = test system: HMC1; test: Immunomodulatory activity in human HMC1 cells assessed as inhibition of phorbol 12-myristate 13-acetate/A23187-stimulated IL-6 mRNA expression at 1 to 100 uM treated 1 hr prior to 5 hrs phorbol 12-myristate 13-acetate/A23187 challenge by RT-PCR analysis; assay type: functional, cell-based
[3] = test system: HMC1; test: Suppression of NF-kappaB activation in human HMC1 cells assessed as inhibition of phorbol 12-myristate 13-acetate/A23187-stimulated IkappaB-alpha degradation at 1 to 100 uM treated 1 hr prior to 2 hrs phorbol 12-myristate 13-acetate/A23187 challenge by Western blotting analysis; assay type: cell-based
[4] = test system: HMC1; test: Immunomodulatory activity in human HMC1 cells assessed as inhibition of phorbol 12-myristate 13-acetate/A23187-stimulated IL1-beta secretion at 1 to 100 uM treated 1 hr prior to 30 mins phorbol 12-myristate 13-acetate/A23187 challenge by Western blotting analysis; assay type: functional, cell-based
[5] = test system: HMC1; test: Immunomodulatory activity in human HMC1 cells assessed as inhibition of phorbol 12-myristate 13-acetate/A23187-stimulated IL-6 secretion by ELISA method; assay type: functional, cell-based
[6] = test system: HMC1; test: Immunomodulatory activity in human HMC1 cells assessed as inhibition of phorbol 12-myristate 13-acetate/A23187-stimulated caspase 1 activation at 1 to 100 uM treated 1 hr prior to 30 mins phorbol 12-myristate 13-acetate/A23187 challenge by caspase colorimetric assay; assay type: functional, cell-based
[7] = test system: HMC1; test: Suppression of NF-kappaB activation in human HMC1 cells assessed as inhibition of phorbol 12-myristate 13-acetate/A23187-stimulated luciferase activity at 1 to 100 uM treated 1 hr prior to 24 hrs phorbol 12-myristate 13-acetate/A23187 challenge by luciferase reporter gene assay; assay type: cell-based
[8] = test system: HMC1; test: Immunomodulatory activity in human HMC1 cells assessed as inhibition of phorbol 12-myristate 13-acetate/A23187-stimulated p38 phosphorylation at 1 to 100 uM treated 1 hr prior to 30 mic phorbol 12-myristate 13-acetate/A23187 challenge; assay type: functional, cell-based
[9] = test system: HMC1; test: Immunomodulatory activity in human HMC1 cells assessed as inhibition of phorbol 12-myristate 13-acetate/A23187-stimulated ERK phosphorylation at 1 to 100 uM treated 1 hr prior to 30 mins phorbol 12-myristate 13-acetate/A23187 challenge; assay type: functional, cell-based
[10] = test system: HMC1; test: Immunomodulatory activity in human HMC1 cells assessed as inhibition of phorbol 12-myristate 13-acetate/A23187-stimulated RIP-2 activation at 1 to 100 uM treated 1 hr prior to 30 mins phorbol 12-myristate 13-acetate/A23187 challenge by Western blotting analysis; assay type: functional, cell-based
[11] = Cytotoxicity against human HMC1 cells assessed as cell viability at 1 to 100 uM after 8 hrs by MTT colorimetric assay; assay type: cell-based; conditions: hmc1, 8 h
[12] = test system: HMC1; test: Suppression of NF-kappaB activation in human HMC1 cells assessed as inhibition of phorbol 12-myristate 13-acetate/A23187-stimulated nuclear Rel A/p65 level at 1 to 100 uM treated 1 hr prior to 2 hrs phorbol 12-myristate 13-acetate/A23187 challenge by Western blotting analysis; assay type: cell-based
[13] = test system: HMC1; test: Immunomodulatory activity in human HMC1 cells assessed as inhibition of phorbol 12-myristate 13-acetate/A23187-stimulated caspase 1 activation at 1 to 100 uM treated 1 hr prior to 30 mins phorbol 12-myristate 13-acetate/A23187 challenge by Western blotting analysis; assay type: functional, cell-based
[14] = test system: HMC1; test: Immunomodulatory activity in human HMC1 cells assessed as inhibition of phorbol 12-myristate 13-acetate/A23187-stimulated histamine secretion at 100 uM treated 1 hr prior to 6 hrs phorbol 12-myristate 13-acetate/A23187 challenge by histamine assay kit; assay type: functional, cell-based
[15] = test system: HMC1; test: Immunomodulatory activity in human HMC1 cells assessed as inhibition of phorbol 12-myristate 13-acetate/A23187-stimulated IL1-beta secretion treated 1 hr prior to 30 mins phorbol 12-myristate 13-acetate/A23187 challenge by Western blotting analysis; assay type: functional, cell-based

SMILES	inhibition [1]	inhibition [2]	inhibition [3]	inhibition [4]	inhibition [5]	inhibition [6]	inhibition [7]	inhibition [8]	inhibition [9]	inhibition [10]	Activity [11]	inhibition [12]	inhibition [13]	inhibition [14]	inhibition [15]
C=C1CCC[C@]2(C)C[C@]3(O)OC(=O)C(C)=C3C[C@@H]12 [ATRACTYLENOLIDE III]	Active	Active	Active	Active	Dose-dependent effect	Active	Active	Active	inactive	Dose-dependent effect	Non-toxic	Active	Dose-dependent effect	Active	–
C[C@@H]1C[C@H]2[C@@H]3CCC4=CC(=O)C=C[C@]4(C)[C@@]3(F)[C@@H](O)C[C@]2(C)[C@@]1(O)C(=O)CO	–	–	–	–	–	–	–	–	–	–	–	–	–	–	Active
